{
  "source": "paper PMC11189555",
  "about": "“Aryl amino acetamides prevent Plasmodium falciparum ring development via targeting the lipid-transfer protein PfSTART1” (Nature Communications, 2024)",
  "system": "3D7 P. falciparum parasites",
  "test": "Growth inhibition assay (72 h, LDH activity)",
  "format": "cell-based, Plasmodium falciparum",
  "settings": "for sample/DMSO (growth inhibition vs DMSO, LDH): 3D7, 2.5 mM GlcN, biological replicates 1-4; for (av-uRBC) / (DMSO-uRBC) x100: 3D7",
  "procedure": "Parasite growth assays with inhibitory compounds were performed as per[11] and are fully described in the Supplementary Information. […]\nGrowth inhibition assays. Synchronised ring-stage parasites (0.3-0.6% parasitemia, 2% haematocrit) were grown for 72 h in a serial-dilution of the compound under […]\nand compound 4. Note that M-833 was first purchased from MolPort (MolPort -002-267-916) then made in-house at WEHI: the differences observed in EC50s across experiments are attributed to the different batches of M -833. For some experiments, 0, 0.25 or 2.5 mM of glucosamine (GlcN) was also added. Experiments were set up in technical duplicates or triplicates. Following a freeze -thaw cycle, lactate dehydrogenase (LDH) activity was assessed as an indicator of parasite growt h 5. 30 μL of parasite culture was incubated for 30 min in the dark with 75 μL Malstat mixture (0.1 M Tris pH 9.0, 20 g/L lactic acid, pH 7.5, 0.2% Triton-X100, 0.5 g/L acetylpyridine adenine dinucleotide (APAD, Sigma), 200 μg/mL nitroblue tetrazolium (NBT; Sigma), 1 μg/mL phenozine ethosulfate (PES; Sigma)). Absorbance was then measured at 650 nm, transformed using the formula below, plotted against the logarithm of the concentrations, and a non-linear regression (log(inhibitor) vs. response, variable slope) was calculated using GraphPad Prism to assess the half-inhibitory […]\nGrowth inhibition % = (1 − average(sample)− average(uRBC)) ∗ 100 […]\nThe DMSO samples were also used to assess growth of parasite in the presence of 0.25 and 2.5 mM GlcN (normalised by DMSO in 0 mM GlcN). […]",
  "note": "“And” between values parts separate entries of the source, which are not always exact repeats. Equal values may be shown once.",
  "data": [
    {"compound": "Cc1cc(Cl)c(S(=O)(=O)N2CCCC2)cc1OCC(=O)NC1CCCCC1", "note": "[M-833]", "values": [
      {"measurement": "sample/DMSO (growth inhibition vs DMSO, LDH)", "setting": "M-833 0.37037 uM", "value": "86.8658 and 83.833 and 67.9393 and 76.787"},
      {"measurement": "sample/DMSO (growth inhibition vs DMSO, LDH)", "setting": "M-833 1.11111 uM", "value": "92.389 and 94.7232 and 88.5258 and 88.1778"},
      {"measurement": "sample/DMSO (growth inhibition vs DMSO, LDH)", "setting": "M-833 3.33333 uM", "value": "94.0803 and 95.4726 and 90.5741 and 88.9113"},
      {"measurement": "Growth (Abs) Normalised to DMSO", "setting": "3D7, M-833 0.0390625 uM", "value": 98.5985},
      {"measurement": "Growth (Abs) Normalised to DMSO", "setting": "3D7, M-833 0.078125 uM", "value": 87.6094},
      {"measurement": "Growth (Abs) Normalised to DMSO", "setting": "3D7, M-833 0.15625 uM", "value": 73.0137},
      {"measurement": "Growth (Abs) Normalised to DMSO", "setting": "3D7, M-833 0.3125 uM", "value": 46.3221},
      {"measurement": "Growth (Abs) Normalised to DMSO", "setting": "3D7, M-833 0.625 uM", "value": 13.1941},
      {"measurement": "Growth (Abs) Normalised to DMSO", "setting": "3D7, M-833 1.25 uM", "value": 5.1955},
      {"measurement": "Growth (Abs) Normalised to DMSO", "setting": "3D7, M-833 2.5 uM", "value": 3.473},
      {"measurement": "Growth (Abs) Normalised to DMSO", "setting": "3D7, M-833 5 uM", "value": 2.75},
      {"measurement": "Growth (Abs) Normalised to DMSO", "setting": "3D7, M-833 10 uM", "value": 1.893},
      {"measurement": "(av-uRBC) / (DMSO-uRBC) x100", "setting": "conc. 3.04832 nM, Biological replicate 1 (2021-10-25)", "value": 99.6118},
      {"measurement": "(av-uRBC) / (DMSO-uRBC) x100", "setting": "conc. 3.04832 nM, Biological replicate 2 (2021-11-03)", "value": 102.365},
      {"measurement": "(av-uRBC) / (DMSO-uRBC) x100", "setting": "conc. 9.14495 nM, Biological replicate 1 (2021-10-25)", "value": 98.5673},
      {"measurement": "(av-uRBC) / (DMSO-uRBC) x100", "setting": "conc. 9.14495 nM, Biological replicate 2 (2021-11-03)", "value": 104.012},
      {"measurement": "(av-uRBC) / (DMSO-uRBC) x100", "setting": "conc. 27.4348 nM, Biological replicate 1 (2021-10-25)", "value": 97.1981},
      {"measurement": "(av-uRBC) / (DMSO-uRBC) x100", "setting": "conc. 27.4348 nM, Biological replicate 2 (2021-11-03)", "value": 104.176},
      {"measurement": "(av-uRBC) / (DMSO-uRBC) x100", "setting": "conc. 82.3045 nM, Biological replicate 1 (2021-10-25)", "value": 86.0541},
      {"measurement": "(av-uRBC) / (DMSO-uRBC) x100", "setting": "conc. 82.3045 nM, Biological replicate 2 (2021-11-03)", "value": 97.3382},
      {"measurement": "(av-uRBC) / (DMSO-uRBC) x100", "setting": "conc. 246.914 nM, Biological replicate 1 (2021-10-25)", "value": 38.189},
      {"measurement": "(av-uRBC) / (DMSO-uRBC) x100", "setting": "conc. 246.914 nM, Biological replicate 2 (2021-11-03)", "value": 46.3664},
      {"measurement": "(av-uRBC) / (DMSO-uRBC) x100", "setting": "conc. 740.741 nM, Biological replicate 1 (2021-10-25)", "value": 13.3602},
      {"measurement": "(av-uRBC) / (DMSO-uRBC) x100", "setting": "conc. 740.741 nM, Biological replicate 2 (2021-11-03)", "value": 12.5985},
      {"measurement": "(av-uRBC) / (DMSO-uRBC) x100", "setting": "conc. 2222.22 nM, Biological replicate 1 (2021-10-25)", "value": 9.5843},
      {"measurement": "(av-uRBC) / (DMSO-uRBC) x100", "setting": "conc. 2222.22 nM, Biological replicate 2 (2021-11-03)", "value": 9.9758},
      {"measurement": "(av-uRBC) / (DMSO-uRBC) x100", "setting": "conc. 6666.67 nM, Biological replicate 1 (2021-10-25)", "value": 8.737},
      {"measurement": "(av-uRBC) / (DMSO-uRBC) x100", "setting": "conc. 6666.67 nM, Biological replicate 2 (2021-11-03)", "value": 9.539},
      {"measurement": "(av-uRBC) / (DMSO-uRBC) x100", "setting": "conc. 20000 nM, Biological replicate 1 (2021-10-25)", "value": 8.871},
      {"measurement": "(av-uRBC) / (DMSO-uRBC) x100", "setting": "conc. 20000 nM, Biological replicate 2 (2021-11-03)", "value": 7.978},
      {"measurement": "Normalised to DMSO", "setting": "3D7 replicate 1, M-833 0.0390625 uM", "value": 93.8526},
      {"measurement": "Normalised to DMSO", "setting": "3D7 replicate 1, M-833 0.078125 uM", "value": 78.1653},
      {"measurement": "Normalised to DMSO", "setting": "3D7 replicate 1, M-833 0.15625 uM", "value": 53.0058},
      {"measurement": "Normalised to DMSO", "setting": "3D7 replicate 1, M-833 0.3125 uM", "value": 31.7546},
      {"measurement": "Normalised to DMSO", "setting": "3D7 replicate 1, M-833 0.625 uM", "value": 15.6331},
      {"measurement": "Normalised to DMSO", "setting": "3D7 replicate 1, M-833 1.25 uM", "value": 6.894},
      {"measurement": "Normalised to DMSO", "setting": "3D7 replicate 1, M-833 2.5 uM", "value": 4.18},
      {"measurement": "Normalised to DMSO", "setting": "3D7 replicate 1, M-833 5 uM", "value": 4.492},
      {"measurement": "Normalised to DMSO", "setting": "3D7 replicate 1, M-833 10 uM", "value": 2.7005},
      {"measurement": "Normalised to DMSO", "setting": "3D7 replicate 2, M-833 0.0390625 uM (plate column as in replicate 1)", "value": 98.0943},
      {"measurement": "Normalised to DMSO", "setting": "3D7 replicate 2, M-833 0.078125 uM (plate column as in replicate 1)", "value": 69.2248}
    ]}
  ]
}
